Key:
[1] = target: T1, PGC-1α (Mus musculus, UniProt O70343); test: Western blot of PGC-1α acetylation in primary hepatocytes; assay type: cell-based; design: expressed in transfected cells; host or cells: primary hepatocytes of C57BL/6 mice infected with Ad-PGC-1α and Ad-GCN5
T1 sequence (O70343 1-797): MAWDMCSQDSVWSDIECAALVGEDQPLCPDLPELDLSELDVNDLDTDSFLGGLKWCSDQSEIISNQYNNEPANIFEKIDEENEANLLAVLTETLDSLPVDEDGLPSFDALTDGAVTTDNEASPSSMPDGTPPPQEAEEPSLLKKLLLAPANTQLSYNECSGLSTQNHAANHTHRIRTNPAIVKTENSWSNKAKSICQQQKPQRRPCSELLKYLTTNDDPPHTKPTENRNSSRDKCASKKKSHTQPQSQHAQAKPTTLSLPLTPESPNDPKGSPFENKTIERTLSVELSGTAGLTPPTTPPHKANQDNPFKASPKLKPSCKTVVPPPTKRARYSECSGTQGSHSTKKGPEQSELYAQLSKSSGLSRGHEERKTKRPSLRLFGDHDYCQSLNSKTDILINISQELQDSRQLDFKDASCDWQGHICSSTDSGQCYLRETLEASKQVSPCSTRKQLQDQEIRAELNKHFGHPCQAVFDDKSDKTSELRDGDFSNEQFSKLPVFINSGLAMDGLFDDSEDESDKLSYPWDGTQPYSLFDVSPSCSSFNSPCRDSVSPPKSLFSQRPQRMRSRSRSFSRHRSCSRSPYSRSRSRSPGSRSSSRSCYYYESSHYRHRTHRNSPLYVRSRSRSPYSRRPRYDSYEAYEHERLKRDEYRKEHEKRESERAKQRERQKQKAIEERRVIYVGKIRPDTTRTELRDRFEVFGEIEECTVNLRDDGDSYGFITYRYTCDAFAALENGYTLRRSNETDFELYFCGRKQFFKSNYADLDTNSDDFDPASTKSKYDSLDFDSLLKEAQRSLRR
Method: (§1) For measurement of acetylation, gene expression and glucose production SR-18292 ([…]) was added to cells overnight and fresh compound was added the following day for additional 3 h before collecting the cells (for total of ˜18 h treatment). Where insulin and glucagon stimulation were performed, the medium was changed to starvation medium (DMEM, 0.2% BSA, 2 mM sodium pyruvate, and 1% penicillin/streptomycin) with fresh compound for the last 3 h and cells were stimulated with either 100 nM insulin or 200 nM glucagon for an extra 1.5 h. For glucose measurements following PGC-1α over expression cells were incubated for the last 3 h in glucose-free medium (phenol-red/glucose free DMEM, 0.2% BSA, 2 mM sodium pyruvate and 20 mM sodium lactate or 10 mM glycerol in case glycerol was used as substrate). For glucose measurements following glucagon stimulation cells were incubated for the last 4 h in the same glucose-free medium that also contained glucagon (200 nM). The glucose level in the medium was measured using a glucose assay kit from Eton Bioscience Inc. by adding […] of assay buffer to […] of medium followed by 15 min incubation at 37° C. Absorbance was measured at 490 nm.
For PGC-1α acetylation detection in hepatocytes cells were infected with Ad-PGC-1α and Ad-GCN5. […]

[2] = test system: primary hepatocytes; test: Glucose production by primary hepatocytes (glucagon or Ad-PGC-1α); assay type: cell-based, mouse; design: glucagon- and PGC-1α-mediated glucose production: dose or concentration left out as unconfirmed
Method: as §1
PGC-1α activates hepatic gluconeogenic gene expression, and an increase in its acetylation status reduces expression of both Pck1 and G6pc genes (Rodgers et al., 2005; Yoon et al., 2001). […] Thus, a high-throughput screen with these 252 compounds at different doses was performed. Briefly, Hepatocytes were treated with forskolin for 1.5 hours to induce the expression of both Pck1 and G6pc genes, which mimics the fasting and PGC-1α-mediated gluconeogenic response. The dose response curves were used to calculate an inhibitory activity of the compounds by determining the difference in Ct values between compound treatment and forskolin control at each dose, and provided an estimated potency of the compounds in suppressing Pck1 and G6pc (FIGS. 4, 34). […] To specifically test the inhibitory activity of the remaining small molecule positive hits on PGC-1α-mediated glucose production, adenoviruses to ectopically express PGC-1α in primary hepatocytes were used. Similar to forskolin, PGC-1α overexpression induces gluconeogenic gene expression and promotes glucose release. Primary hepatocytes were treated with the chosen positive hit compounds that could suppress gluconeogenic gene expression, and the concentration of glucose released to the culture medium was measured.

Compound: Cc1ccc(CN(CC(O)COc2cccc3[nH]ccc23)C(C)(C)C)cc1 (centres unmarked) [SR-18292, 1-((1H-indol-4-yl)oxy)-3-(tert-butyl(4-methylbenzyl)amino)propan-2-ol]
- PGC-1α acetylation ([1]; primary hepatocytes, Ad-PGC-1α and Ad-GCN5, 18 h): increased PGC-1α acetylation
- PGC-1α acetylation in presence of deacetylase inhibitors ([1]; with Ex-527 (SIRT1 inhibitor) and Trichostatin A): increased acetylation of PGC-1α even in the presence of Ex-527
- glucose release after short treatment ([2]; 3 hr treatment): no effect
- glucose production from pyruvate and lactate or from glycerol as substrate ([2]; Ad-PGC-1α hepatocytes): decreases glucose production
- glucagon- and PGC-1α-mediated glucose production ([2]; isolated hepatocytes): significantly reduced
